Test results reported in patent US4015974A, “Amido phosphorothiolates” (priority 1972, dated 1977).
In brackets after ≈: the same amount, converted by molar mass.

How the values were obtained:
Assay type in all cases: in vivo
[1] = tested on: tobacco cut worm (Spodoptera litura); assay: Field test, tobacco cut worm on cabbage (Table 8); settings: 3% dust, 5 kg./10 a., after 7 days, on 20 cabbages
Description: (§1) A 3% dust of each compound of the present invention was applied, in a proportion of 5 kg./10 a., to the field of cabbage where a large number of tobacco cut worm and diamond-back moth were generated, After 7 days, 20 cabbages were pulled out and the number of insects thereon were checked.

[2] = tested on: diamond-back moth (Plutella maculipennis); assay: Field test, diamond-back moth on cabbage (Table 8); settings: 3% dust, 5 kg./10 a., after 7 days, on 20 cabbages
Description: as §1

[3] = tested on: barnyard grass (Echinochloa crus-galli); assay: Water application, herbicidal effect on barnyard grass (Table 2); parameters: key: 0: not damaged; 5: completely killed; settings: 25 days, score 0-5
Outline: (§2)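 Paddy-soil pots flooded to paddy conditions; rice transplanted at 3-leaf stage, barnyard grass sown, broad-leaved weeds germinating spontaneously. Test compounds applied as wettable powder to soil under flooded water. Herbicidal effect and rice phytotoxicity scored 0–5 at 25 days after application.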

[4] = tested on: barnyard grass (Echinochloa crus-galli); assay: Pre-emergence application, herbicidal effect on barnyard grass (Table 1); parameters: key: 0: not damaged; 5: completely killed; settings: 20 days after application, score 0-5
Outline: (§3)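 Soil treatment after sowing, pre-emergence; wettable powder formulations diluted with water. Greenhouse, 20 d. Score 0 = no damage, 5 = complete kill.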

[5] = tested on: tobacco cut worm (Spondoptera litura); assay: Lethal effect on tobacco cut worm (Table 5); settings: tobacco cutworm, larvae on chinese cabbage leaves, 48 h
Procedure: The present compounds of an emulsifiable concentrate type were applied to leaves of chinese cabbage in the form of an 1000 fold dilute solution. After air-drying, third to fourth instar larvae of tobacco cut worm were released and after 48 hours the death and alive were observed.

[6] = tested on: rice stem borer (Chilo suppressalis); assay: Lethal effect on rice stem borer (Table 6); settings: 50 % emulsifiable concentrate, 1000 fold dilute solution, 4 days after application
Description: Eggs just before hatch of the rice stem borer were applied in a ratio of 100/pot near the root of rice plants grown up into the tillering stage in an […] Wagner's pot. After eggs were hatched and the larvae entered into stems of rice plants, an 1000 fold dilute solution of each 50 % emulsifiable concentrates of the present compounds was applied by means of a turn table.

nematode = assay: Effect on nematode (Table 7); parameters: tested at 500 ppm; settings: 500 p.p.m., 24 hours
Procedure: 0.5 ml. of a nematode-containing aqueous solution separated from food according to Baermann's method was placed in a test tube with ground stopper containing 0.5 ml. of an aqueous dilute solution of each emulsifiable concentrates of the present compounds. The concentration of the active ingredient in the mixture was adjusted to 500 p.p.m. After 24 hours, the death and alive were observed microscopically to calculate the mortality.

[7] = tested on: broad-leaved weeds, e.g., monochoria, false pimpernel and toothcup; assay: Water application, herbicidal effect on broad-leaved weeds (Table 2); parameters: key: 0: not damaged; 5: completely killed; settings: 25 days, score 0-5
Outline: as §2

[8] = tested on: carmine mite (Tetranychus telavius); assay: Lethal effect on carmine mite, leaf dipping (Table 3); settings: foliar, 48 h
Procedure: A large number of carmine mite adult were made parasitic on leaves of potted kidney beans at a 2-leaves stage which had elapsed 10 days after sowing. The leaves of kidney bean on which carmine mites had been made parasitic were dipped for 1 minute in each aqueous solution of the present compounds of wettable powder type. Water was given to the leaves not to kill them, and after 48 hours the death and alive were observed microscopically to calculate the mortality. Values of LC50 were obtained from the mortality.

[9] = tested on: redroot pigweed (Amaranthus retroflexus); assay: Pre-emergence application, herbicidal effect on redroot pigweed (Table 1); parameters: key: 0: not damaged; 5: completely killed; settings: 20 days after application, score 0-5
Outline: as §3

[10] = tested on: common purslane (Portulaca oleracea); assay: Pre-emergence application, herbicidal effect on common purslane (Table 1); parameters: key: 0: not damaged; 5: completely killed; settings: 20 days after application, score 0-5
Outline: as §3

radish = assay: Pre-emergence application, herbicidal effect on radish (Table 1); parameters: key: 0: not damaged; 5: completely killed; settings: 20 days after application, score 0-5
Outline: as §3

rice = assay: Water application, phytotoxicity on rice (Table 2); parameters: key: 0: no effect; 1: very slightly affected; 2: slightly affected; 3: moderately affected; 4: considerably affected; 5: completely killed; settings: 25 days, score 0-5
Outline: as §2

[11] = tested on: large crabgrass (Digitaria sanguinalis); assay: Pre-emergence application, herbicidal effect on large crabgrass (Table 1); parameters: key: 0: not damaged; 5: completely killed; settings: 20 days after application, score 0-5
Outline: as §3

[12] = tested on: common lambsquarter (Chenopodium album); assay: Pre-emergence application, herbicidal effect on common lambsquarter (Table 1); parameters: key: 0: not damaged; 5: completely killed; settings: 20 days after application, score 0-5
Outline: as §3

[13] = tested on: carmine mite (Tetranychus telarius); assay: Lethal effect on carmine mite, degree of damage on kidney beans (Table 4); parameters: key: -: damage is hardly increased.; +: damage is slightly increased.; ++: damage is fairly increased.; +++: damage is heavily increased; settings: 25% wettable powder, 200 fold dilute solution, another week after application
Description: About 50 carmine mite adults were made parasitic on leaves of potted kidney beans at a 2-leaves stage which had elapsed 10 days after swing. After a week, the present compounds of a 25% wettable powder type were each applied in the form of a 200 fold dilute solution.

Compound	Herbicidal effects, barnyard grass ([3]; 10 g/a)	Herbicidal effects, barnyard grass ([3]; 20 g/a)	Herbicidal effects, barnyard grass ([3]; 40 g/a)	Herbicidal effect, barnyard grass ([4]; 10 g./a.)	Herbicidal effect, barnyard grass ([4]; 20 g./a.)	Herbicidal effect, barnyard grass ([4]; 40 g./a.)	Herbicidal effects, broad-leaved weeds ([7]; 10 g/a)	Herbicidal effects, broad-leaved weeds ([7]; 20 g/a)	Herbicidal effects, broad-leaved weeds ([7]; 40 g/a)	Herbicidal effect, redroot pigweed ([9]; 10 g./a.)	Herbicidal effect, redroot pigweed ([9]; 20 g./a.)	Herbicidal effect, redroot pigweed ([9]; 40 g./a.)	Herbicidal effect, common purslane ([10]; 10 g./a.)	Herbicidal effect, common purslane ([10]; 20 g./a.)	Herbicidal effect, common purslane ([10]; 40 g./a.)	Herbicidal effect, radish (radish; 10 g./a.)	Herbicidal effect, radish (radish; 20 g./a.)	Herbicidal effect, radish (radish; 40 g./a.)	Phytotoxicity on rice (rice; 10 g/a)	Phytotoxicity on rice (rice; 20 g/a)	further results
COP(=O)(OC)C(O)C(Cl)(Cl)Cl (stereo not shown) [Bipterex, reference compound]																					Number of insects, tobacco cut worm [1]: 19; Number of insects, diamond-back moth [2]: 49
CCOP(=O)(SCC(=O)N1CCCCC1C)SC(C)CC (stereo not shown) [Compound 5]	5	5	5	5	5	5	5	5	5	5	5	5	5	5	5	0	0	0	0	0	Mortality [5]: 70.0%; Mortality [6]: 88.9%; Mortality (nematode): 100%; LC50 [8]: 7.9 µg/mL (≈ 22.3 µM); Phytotoxicity on rice (rice; 40 g/a): 0; Herbicidal effect, large crabgrass ([11]; 10 g./a.): 5; Herbicidal effect, large crabgrass ([11]; 20 g./a.): 5; Herbicidal effect, large crabgrass ([11]; 40 g./a.): 5; Herbicidal effect, common lambsquarter ([12]; 10 g./a.): 5; Herbicidal effect, common lambsquarter ([12]; 20 g./a.): 5; Herbicidal effect, common lambsquarter ([12]; 40 g./a.): 5
CCOP(=O)(SCC(=O)N1CCCCC1C)SCc1ccc(Cl)cc1 (stereo not drawn) [Compound 49, O-ethyl-S-(4-chlorobenzyl)-S-(2-methylpiperidinocarbamoylmethyl)phosphorodithiolate]	5	5	5	5	5	5	5	5	5	3	4	5	3	4	5	0	0	0	0	0	Mortality [5]: 75.0%; Mortality (nematode): 100%; Phytotoxicity on rice (rice; 40 g/a): 1; Degree of damage [13]: -; Herbicidal effect, large crabgrass ([11]; 10 g./a.): 5; Herbicidal effect, large crabgrass ([11]; 20 g./a.): 5; Herbicidal effect, large crabgrass ([11]; 40 g./a.): 5; Herbicidal effect, common lambsquarter ([12]; 10 g./a.): 4; Herbicidal effect, common lambsquarter ([12]; 20 g./a.): 4; Herbicidal effect, common lambsquarter ([12]; 40 g./a.): 5
CCOP(=O)(SCC(=O)N1CCCCC1C)SCc1ccc(C(C)(C)C)cc1 (stereo not shown) [Compound 50]	5	5	5	5	5	5	5	5	5	5	5	5	5	5	5	0	1	2	0	0	Mortality [5]: 81.2%; Mortality (nematode): 100%; Phytotoxicity on rice (rice; 40 g/a): 1; Herbicidal effect, large crabgrass ([11]; 10 g./a.): 5; Herbicidal effect, large crabgrass ([11]; 20 g./a.): 5; Herbicidal effect, large crabgrass ([11]; 40 g./a.): 5; Herbicidal effect, common lambsquarter ([12]; 10 g./a.): 5; Herbicidal effect, common lambsquarter ([12]; 20 g./a.): 5; Herbicidal effect, common lambsquarter ([12]; 40 g./a.): 5
CCOP(=O)(SCC(=O)N1CCCCC1C)SCc1ccc(CC)cc1 (stereo not shown) [Compound 53]	5	5	5	4	5	5	5	5	5	3	4	5	3	3	5	0	0	0	0	0	Mortality (nematode): 83.6%; Phytotoxicity on rice (rice; 40 g/a): 0; Degree of damage [13]: -~+; Herbicidal effect, large crabgrass ([11]; 10 g./a.): 5; Herbicidal effect, large crabgrass ([11]; 20 g./a.): 5; Herbicidal effect, large crabgrass ([11]; 40 g./a.): 5; Herbicidal effect, common lambsquarter ([12]; 10 g./a.): 3; Herbicidal effect, common lambsquarter ([12]; 20 g./a.): 3; Herbicidal effect, common lambsquarter ([12]; 40 g./a.): 4
CCOP(=O)(SCC(=O)N1CCCCC1CC)SCc1ccc(CC)cc1 (stereo not shown) [Compound 58]	5	5	5	4	5	5	5	5	5	3	4	5	3	4	5	0	0	0	0	0	Mortality [5]: 72.0%; Phytotoxicity on rice (rice; 40 g/a): 0; Herbicidal effect, large crabgrass ([11]; 10 g./a.): 5; Herbicidal effect, large crabgrass ([11]; 20 g./a.): 5; Herbicidal effect, large crabgrass ([11]; 40 g./a.): 5; Herbicidal effect, common lambsquarter ([12]; 10 g./a.): 3; Herbicidal effect, common lambsquarter ([12]; 20 g./a.): 4; Herbicidal effect, common lambsquarter ([12]; 40 g./a.): 4
CCOP(=O)(SCCc1ccc(Cl)cc1)SCC(=O)N1CCCCC1C (stereo not shown) [Compound 60]																					Degree of damage [13]: -
CCOP(=O)(SCC(=O)N1CCCCC1C)SCc1ccc(Cl)c(Cl)c1 (stereo not shown) [Compound 61]																					Degree of damage [13]: -
